Assay results published in ChEMBL document CHEMBL3507680, “University of Dundee, Gates Library screen for HepG2 cell viability”.

Experiment: Human HepG2 cell viability assay in 384 well format
Type: toxicity, cell-based
Set-up: dose 125 nL, time 70.5 hour; concentration not given beside the values
Details: HepG2 cells, read-out: Inhibition

Compound | cytotoxicity at 70.5 h [%]
COCC1c2c(cnn2C)CCN1Cc1cccc(C)c1 (configuration not stated) | -1.18
NC(=O)CCSc1n[nH]c(-c2ccc3c(c2)CCC3)n1 | -1.76
COc1ccc(CN2CCN(CC3CC3)[C@@H]3CS(=O)(=O)C[C@@H]32)cc1O | -2.14
CCCS(=O)(=O)N1CCCN(CCCOC)CC1 | 8.01
CC(=O)N1CCN(Cc2nccs2)CC2(CC(=O)N(C)C2)C1 (configuration not stated) | -11.2
CCN1CCC(CC(=O)NCCc2nc(O)cc(O)n2)CC1 | 16.1
COCCC(=O)N1C[C@@H](c2ccc(F)c(F)c2)[C@@]2(CCCC(=O)N2)C1 | -1.65
CCCNC(=O)CNc1cc(C(=O)NCC(F)(F)F)cc(F)c1C | -6.37
Cc1cc(NC(=O)NCc2ccccn2)n(C)n1 | -6.19
CN1CCN(c2ccc(NS(=O)(=O)c3ccc(Br)s3)cc2C(=O)O)CC1 | 24
C1CCC(CO[C@@H]2CC[C@H]3[C@H]2OCCN3CC2CCOCC2)C1 | -84.4
CS(=O)(=O)NCC1CCCN(C(=O)c2ccc(Cl)o2)C1 (configuration not stated) | -8.13
O=C(NCCNc1ccc(C(F)(F)F)cn1)c1cc(Cl)ccc1F | -4.63
Cc1nc(CN2CCc3cnc(C(C)C)nc3C2)oc1C | -77.4
COc1ccccc1OCC(=O)NCC(C)(O)c1ccccc1 (configuration not stated) | -12.5
CS(=O)(=O)N1CCc2ccc(=O)n(CCN3CCCC3)c2CC1 | -6.85
CC(CNC(=O)N1CCN(Cc2ccon2)CC1)N(C)C1CC1 (configuration not stated) | -1.74
CN(C)C1CCCN(C(=O)CCc2csc(N)n2)CC1 (configuration not stated) | 1.01
CCN1CCN(C[C@H]2CC[C@@H](Cc3ccc4c(c3)OCO4)O2)CC1 | -5.47
COc1ccc(C(O)CNC(=O)NCc2c(C)cc(C)[nH]c2=O)cc1 (configuration not stated) | -5.03
Cc1cc(NC(=O)Cn2nc(C)c(C#N)c2N)ccc1Br | -7.3
O=C(NC1=NCCS1)C1CSCN1C(=O)C1CCCC1 (configuration not stated) | -12.4
CC(C)(C)OC(=O)N1CCCCC(NC(=O)CCc2cccnc2)C1 (configuration not stated) | -3.57

Compound | cytotoxicity at 70.5 h [%]
Cc1cnn(CC2CCCN2Cc2nccn2C)c1 (configuration not stated) | 13.6
Cc1cc(C(C)(O)CNC(=O)C2(C)CCCC2)c(C)o1 (configuration not stated) | -0.0569
O=C1Nc2ccccc2CC12CCN(CCO)C2 (configuration not stated) | -6.04
O=C1C(n2nnc(-c3cccs3)n2)CCN1CC(F)(F)F (configuration not stated) | -7.6
COc1c(CNCc2ccc(N(C)C)nc2)c(C(C)C)nn1C | 1.68
Cc1cc(NCc2ccc(C#N)cc2)n2nc(C)cc2n1 | -4.7
COCCN1CC(Nc2nc(C(C)C)nc3c2cnn3C)CC1=O (configuration not stated) | -0.509
CC(c1nc(C2CC2)no1)N1CCN(Cc2ccc(C#N)cc2)CC1 (configuration not stated) | 5.31
Cc1cc(-c2nn(C)c(Cl)c2CN2CCOCC2CC(N)=O)no1 (configuration not stated) | 6.65
CCc1cc(N2CCN(c3ccc(Cl)cn3)CC2)n2nccc2n1 | -1.55
O=c1[nH]nc2nc(N3CCSCC3)ccn12 | 0.517
COc1ccc(CN2CCN(C3CCc4ccccc4C3)CC2)cc1O (configuration not stated) | 3.2
CC(NC(=O)N(C)Cc1ccc2c(c1)OCO2)c1nncn1C (configuration not stated) | -8.56
CN1C(=O)CCc2cc(NC(=O)C3CC(=O)N(CC4CC4)C3)ccc21 (configuration not stated) | 2.59
Cc1ccc(C(=O)NCc2cccnc2N(C)C)s1 | -10.9
CC(C)Cn1cncc1CNC(=O)c1cccc(Cn2cccn2)c1 | -5.12
Cc1ccccc1C(=O)NCc1ccc(N2CCNC(=O)C2)cc1 | -10.2
Cc1ccc(C)c(OCc2cc(C(=O)N(C)CC(O)CO)no2)c1 (configuration not stated) | -4.59
O=C(CN1CCSCC1c1ccccc1)N1CCCC1 (configuration not stated) | 20
CCNc1cc2c(nn1)CCN(C(=O)Cc1ccc(C)nc1)C2 | -6.5
Cc1ccc(CNC2(Cc3cc(-c4cccc(O)c4)on3)COC2)o1 | -8.24
CCn1cc(-c2n[nH]c(=O)n2-c2ccc(OC)c(OC)c2)c(C)n1 | -4.02
CC(=O)N(C)C1CCN(C(=O)NCCc2cc(F)ccc2F)CC1 | -13.7

Compound | cytotoxicity at 70.5 h [%]
O=C(c1[nH]nc(C2CC2)c1Cl)N1CCN(C2CC2)CC1 | 0.431
Cc1cc2nc(C(C)C)cc(N3CCN(c4ccc(O)cc4)CC3)n2n1 | -1.87
CC(Cn1cccn1)Nc1cnc2ccccc2n1 (configuration not stated) | -0.212
O=C(CCc1nc(-c2ccccc2)no1)N[C@H]1COC[C@@H]1N1CCCC1 | -9.03
COCC1CN(C(=O)Cc2ccsc2)Cc2c1cnn2C (configuration not stated) | 25.8
Cc1nn(C)cc1CN1CCCCCC1c1ccc(Cl)cc1 (configuration not stated) | 6.75
CCc1cccc(N2CCC(NC(=O)CCNC(N)=O)CC2)c1 | -6.16
Cc1cc(C2CCCN2CCC(=O)N2CCc3sccc3C2)no1 (configuration not stated) | 1.59
O=C(C1CCCO1)N1CCc2onc(-c3ccc(Cl)cc3)c2C1 (configuration not stated) | 16.8
OCC1(O)CCN(Cc2ccc(C3CCCCO3)o2)CC1 (configuration not stated) | -1.61
COc1ccc(CCN2C(=O)O[C@@H]3CN(C4CCOCC4)C[C@@H]32)cc1 | 5.89
CCN(C)c1ncnc2c1CCN(C(=O)N(C)C)CC2 | 0.982
Cc1nnc([C@@H]2C[C@H]3CN(C(=O)c4c(C)noc4C)C[C@H]3O2)[nH]1 | -11.6
CC(c1ccc(F)cc1F)N1CCN(CCC(=O)O)CC1 (configuration not stated) | -6.34
CNC(=O)NC(=O)CCSCc1cc(F)cc2cccnc12 | -27.1
Cc1ccc(CNCC2Cn3nncc3CO2)o1 (configuration not stated) | -3.52
Cc1cccc(OCC(O)CN2CCC(Cn3cccn3)CC2)c1 (configuration not stated) | 22.2
OC(COCc1ccco1)CSc1nnc2ccccn12 (configuration not stated) | -6.03
Cc1ccccc1SCC(=O)NS(=O)(=O)c1ccc2c(c1)OCCO2 | -2.48
Cc1cnc(N2CCCC3(CCCN(C)C3)C2)nc1 (configuration not stated) | -0.385
O=C(CN1CCCC(Cn2cncn2)C1)NCCC1=CCCCC1 (configuration not stated) | 7.12
CCc1c(C)nn(CCNC(=O)c2cc(C3CC3)n[nH]2)c1C | -2.41
C[C@@H]1CN(C(=O)CCc2cnn(C)c2)CC[C@@]1(O)C1CCOCC1 | 8.15

Compound | cytotoxicity at 70.5 h [%]
O=C(c1cccs1)N1CC[C@H](O)[C@@H]1Cc1ccccc1 | 29.4
Cc1ccc(CCNc2ncc(C)c(-c3ccnn3C)n2)s1 | -8.02
Cc1nc(NC2CC(C)(C)NC(C)(C)C2)c2c(n1)c(C)nn2C | -18.4
CCCn1nc2c(cc1=O)CN(CC(=O)N(C)c1nccs1)CC2 | -4.23
Cc1ccccc1CS(=O)(=O)CC(=O)N(C)Cc1cccc(F)c1 | -6.34
CC(=O)N1Cc2nccn2CC(CNC(=O)c2cccnc2)C1 (configuration not stated) | -11.5
O=C(O)c1cc(NS(=O)(=O)c2ccc(Br)s2)c(F)cc1F | 1.5
Cc1cnc(C(=O)N2CCN(C(=O)C(C)C)[C@@H]3CS(=O)(=O)C[C@@H]32)cn1 | -6.02
Cc1cc(C(=O)N2CC[C@H]3C[C@H](c4ccncn4)O[C@@H]3C2)c(C)[nH]1 | -4.78
O=C(NCCSCc1cccs1)C1CCCN(C(=O)N2CCCC2)C1 (configuration not stated) | -6.45
CO[C@@H]1CCN(Cc2c(C)noc2C)[C@@H]2CN(Cc3cccnc3)C[C@@H]21 | -5.86
Cc1noc(C)c1-c1cncc(C2CCCN2Cc2cn(C)cn2)n1 (configuration not stated) | -5.21
CC(=O)N1CC[C@]2(O)CCN(Cc3nc(C)c[nH]3)C[C@@H]2C1 | 9.69
Cc1cc(Cl)c2c(c1)C1(NC(=O)c3cccnc3N1)C(=O)N2 (configuration not stated) | -1.82
CSCCC(O)C(=O)N1CCC(OCc2cccnc2)CC1 (configuration not stated) | 16.3
CN1C(=O)CCCC12CCCN(Cc1cccs1)C2 (configuration not stated) | -6.68
COC(=O)C(NC(=O)CCc1ccco1)c1cc(F)ccc1F (configuration not stated) | -7.98
Cc1cnn(C2CCCN(C(=O)c3cnc4ccccc4n3)C2)c1 (configuration not stated) | -7.22
CN(C)CCN1C(=O)CCC12CCN(C(=O)c1cccnc1)CC2 | -4
C[C@H]1C[C@H]2CN(C(=O)c3ccncn3)CC[C@H]2O1 | -0.543
CC(C(=O)NCc1ccnc(N2CCN(C)CC2)c1)n1cccn1 (configuration not stated) | -5.91
CC(C)N(C)[C@@H]1CCN(Cc2ccco2)[C@H]1Cc1ccccc1 | 38.2
CC(C)c1n[nH]c(C(=O)Nc2ccccn2)c1Br | 12.4

Compound | cytotoxicity at 70.5 h [%]
Cc1cc(C(=O)N2CCC[C@]3(C[C@@H](OCC4CC4)CO3)C2)no1 | -11.6
COc1cccc(N2CC3(CCN(Cc4nccn4C)C3)CC2=O)c1 (configuration not stated) | -16.5
O[C@@H]1C[C@H]2CN(CC3CCCCC3)[C@H](Cc3ccccc3)CN2C1 | 24.4
O=C(O)c1ccc(CNC(=O)C2CCN(Cc3ccco3)CC2)s1 | -3.49
Nc1nccc(C2CN(Cc3ccc(-c4ccccc4C(=O)O)o3)C2)n1 | 2.9
CC(C)c1nc(C2CCCN(C(=O)c3ccc4[nH]cnc4c3)C2)no1 (configuration not stated) | -18.2
N#Cc1ccc(C(=O)N2CCC(Oc3ccc(C#N)cn3)CC2)cc1 | -3.02
CNc1nc(C2CCCN(C(=O)C(C)C)C2)nc2c1CN(C)CC2 (configuration not stated) | 9.57
Cc1cnn(CCC(=O)NS(=O)(=O)N2CCCc3ccccc32)c1 | -5.92
Cn1nccc1C(=O)Nc1cc(C(F)(F)F)c[nH]c1=O | -6.13
O=C(NCCN1CCCCCC1)c1coc(COc2ccc(F)cc2)n1 | 8.68
COc1nccnc1N1CCC2(CC1)[C@H](O)C[C@@H]2OCCN(C)C | -7.06
Nc1cc2c(nn1)CCN(C(=O)C1CCc3ccccc31)C2 (configuration not stated) | -11.2
Cn1cnc(S(=O)(=O)NCC2(O)CCc3ccccc3C2)c1 (configuration not stated) | -7.71
CN(C)c1ncnc2c1CCN(c1cc(C(F)(F)F)ncn1)CC2 | -1.26
Cc1ncccc1C(=O)Nc1ccc2ccn(CCN(C)C)c2c1 | -4.81
Cn1cc(CC2CC(=O)N(Cc3ccc(Cl)cc3)C2=O)cn1 (configuration not stated) | 24.4
CC(=O)Nc1ncc(S(=O)(=O)N2CCC(C)CC2)s1 | -8.58
CC(Oc1ccccc1C(F)(F)F)C(=O)NCCC(=O)N(C)C (configuration not stated) | 0.999
CC(CO)NC(=O)c1ccc(NCc2ccc(F)c(F)c2)cc1 (configuration not stated) | -0.038
